{
  "source": "ChEMBL document CHEMBL1125092",
  "about": "“Nonneurotoxic tetralin and indan analogues of 3,4-(methylenedioxy)amphetamine (MDA)” (J Med Chem, 1990)",
  "key": {"Rattus norvegicus [1]": {"species": "Rattus norvegicus", "test": "Bmax for compound was evaluated in rat cortical homogenate", "assay_type": "tissue-based"}, "[2]": {"biological_target": "T1, Sodium-dependent serotonin transporter (Rattus norvegicus, UniProt P31652)", "T1 sequence (P31652 whole entry)": "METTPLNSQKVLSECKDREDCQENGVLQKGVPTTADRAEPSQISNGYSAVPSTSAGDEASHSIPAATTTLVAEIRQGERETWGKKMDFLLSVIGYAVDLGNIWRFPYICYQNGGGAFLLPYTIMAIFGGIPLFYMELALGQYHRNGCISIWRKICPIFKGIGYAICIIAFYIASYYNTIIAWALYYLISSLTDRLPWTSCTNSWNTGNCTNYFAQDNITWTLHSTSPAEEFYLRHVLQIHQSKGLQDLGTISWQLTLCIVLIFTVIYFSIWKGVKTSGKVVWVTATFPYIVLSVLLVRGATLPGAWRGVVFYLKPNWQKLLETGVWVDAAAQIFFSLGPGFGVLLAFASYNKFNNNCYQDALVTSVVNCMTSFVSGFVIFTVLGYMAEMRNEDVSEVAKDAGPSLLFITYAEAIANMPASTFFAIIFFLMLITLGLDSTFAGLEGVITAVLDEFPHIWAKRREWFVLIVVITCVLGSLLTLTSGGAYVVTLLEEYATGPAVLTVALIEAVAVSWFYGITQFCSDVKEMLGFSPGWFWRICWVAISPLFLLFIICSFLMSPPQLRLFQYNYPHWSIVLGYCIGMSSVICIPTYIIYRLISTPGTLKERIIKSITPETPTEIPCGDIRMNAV", "test": "Binding affinity was determined towards serotonin uptake site in presence of [3H]paroxetine radioligand in rat brain cortical homogenate", "assay_type": "tissue-based"}, "[3]": {"biological_target": "T1, Sodium-dependent serotonin transporter", "test": "Binding affinity was determined towards serotonin uptake site in presence of [3H]paroxetine radioligand in rat hippocampal homogenate", "assay_type": "tissue-based, Hippocampus"}, "Rattus norvegicus [4]": {"species": "Rattus norvegicus", "test": "Bmax for compound was evaluated in rat hippocampal homogenate", "assay_type": "tissue-based", "conditions": "Hippocampus"}, "Rattus norvegicus [5]": {"test_system": "Rattus norvegicus", "test": "Hallucinogenic property was determined in groups of LSD trained rats and percentage of animals disrupted was reported at a dose 0.59(uM/kg), (number of animals = 11)", "assay_type": "functional"}, "Rattus norvegicus [6]": {"test_system": "Rattus norvegicus", "test": "Percentage of animals disrupted was determined in groups of LSD trained rats at a dose of 1.17(uM/kg)(no. of animals =16)", "assay_type": "functional"}, "Rattus norvegicus [7]": {"test_system": "Rattus norvegicus", "test": "Percentage of animals disrupted was determined in groups of LSD trained rats at a dose of 2.34(uM/kg) (no. of animals = 10)", "assay_type": "functional"}, "Rattus norvegicus [8]": {"test_system": "Rattus norvegicus", "test": "Hallucinogenic property was determined in groups of MDMA trained rats and percentage of animals disrupted was reported at a dose 1.17 (umol/kg), (number of animals = 8)", "assay_type": "functional"}, "Rattus norvegicus [9]": {"test_system": "Rattus norvegicus", "test": "Percentage of animals disrupted was determined in groups of MDMA trained rats at a dose 4.68 (uM/kg), (no.of animals=8)", "assay_type": "functional"}, "Rattus norvegicus [10]": {"test_system": "Rattus norvegicus", "test": "Percentage of animals disrupted was determined in groups of LSD trained rats at a dose of 4.68(uM/kg) (no. of animals = 15)", "assay_type": "functional"}, "Rattus norvegicus [11]": {"test_system": "Rattus norvegicus", "test": "Percentage of animals disrupted was determined in groups of LSD trained rats at a dose of 9.36(uM/kg) (no. of animals =6)", "assay_type": "functional"}, "Rattus norvegicus [12]": {"test_system": "Rattus norvegicus", "test": "Percentage of animals disrupted was determined in groups of MDMA trained rats at a dose 2.34 (uM/kg), (no.of animals=10)", "assay_type": "functional"}, "Rattus norvegicus [13]": {"test_system": "Rattus norvegicus", "test": "Percentage of animals disrupted was determined in groups of MDMA trained rats at a dose 9.36 (uM/kg), (no.of animals=10)", "assay_type": "functional"}, "Rattus norvegicus [14]": {"test_system": "Rattus norvegicus", "test": "Monoamine levels in at hippocampus were evaluated after subcutaneous administration of 40 mg/kg for NE", "assay_type": "functional"}, "Rattus norvegicus [15]": {"test_system": "Rattus norvegicus", "test": "Monoamine levels in rat brain were evaluated after subcutaneous administration of 40 mg/kg for 5-HIAA", "assay_type": "functional"}, "Rattus norvegicus [16]": {"test_system": "Rattus norvegicus", "test": "Monoamine levels in rat brain were evaluated after subcutaneous administration of 40 mg/kg for 5-HT", "assay_type": "functional"}, "Rattus norvegicus [17]": {"test_system": "Rattus norvegicus", "test": "Monoamine levels in rat brain were evaluated after subcutaneous administration of 40 mg/kg for DA", "assay_type": "functional"}, "Rattus norvegicus [18]": {"test_system": "Rattus norvegicus", "test": "Monoamine levels in rat brain were evaluated after subcutaneous administration of 40 mg/kg for DOPAC", "assay_type": "functional"}, "Rattus norvegicus [19]": {"test_system": "Rattus norvegicus", "test": "Monoamine levels in rat brain were evaluated after subcutaneous administration of 40 mg/kg for HVA", "assay_type": "functional"}, "Rattus norvegicus [20]": {"test_system": "Rattus norvegicus", "test": "Monoamine levels in rat hippocampus were evaluated after subcutaneous administration of 40 mg/kg for 5-HIAA", "assay_type": "functional"}, "Rattus norvegicus [21]": {"test_system": "Rattus norvegicus", "test": "Monoamine levels in rat hippocampus were evaluated after subcutaneous administration of 40 mg/kg for 5-HT", "assay_type": "functional"}, "Rattus norvegicus [22]": {"test_system": "Rattus norvegicus", "test": "Tested for stimulus generation in rats trained to discriminate LSD from saline at a dose 0.59(uM/kg), (number of animals = 11)", "assay_type": "functional"}, "Rattus norvegicus [23]": {"test_system": "Rattus norvegicus", "test": "Tested for stimulus generation in rats trained to discriminate LSD from saline at a dose 1.17 (umol/kg) (number of animals =16)", "assay_type": "functional"}, "Rattus norvegicus [24]": {"test_system": "Rattus norvegicus", "test": "Tested for stimulus generation in rats trained to discriminate LSD from saline at a dose 2.34 (umol/kg) (number of animals = 10)", "assay_type": "functional"}, "Rattus norvegicus [25]": {"test_system": "Rattus norvegicus", "test": "Tested for stimulus generation in rats trained to discriminate +/-MDMA from saline at 1.17 (umol/kg), (number of animals = 8)", "assay_type": "functional"}, "Rattus norvegicus [26]": {"test_system": "Rattus norvegicus", "test": "Tested for stimulus generation in rats trained to discriminate +/-MDMA from saline at 4.68 (umol/kg), (number of animals = 8)", "assay_type": "functional"}, "Rattus norvegicus [27]": {"test_system": "Rattus norvegicus", "test": "Tested for stimulus generation in rats trained to discriminate +/-MDMA from saline at 9.36 (umol/kg), (number of animals = 10)", "assay_type": "functional"}, "Rattus norvegicus [28]": {"test_system": "Rattus norvegicus", "test": "Tested for stimulus generation in rats trained to discriminate LSD from saline at a dose 4.68 (umol/kg),(number of animals = 15)", "assay_type": "functional"}, "Rattus norvegicus [29]": {"test_system": "Rattus norvegicus", "test": "Tested for stimulus generation in rats trained to discriminate +/-MDMA from saline at 2.34 (umol/kg), (number of animals = 10)", "assay_type": "functional"}, "Rattus norvegicus [30]": {"test_system": "Rattus norvegicus", "test": "Monoamine levels in rat brain were evaluated after subcutaneous administration of 40 mg/kg for NE", "assay_type": "functional"}},
  "data": [
    {"smiles": "NC1Cc2cc3c(cc2C1)OCO3", "values": [
      {"measurement": "Bmax", "setting": "Rattus norvegicus [1]", "value": 918, "unit": "fM/g"},
      {"measurement": "Kd", "setting": "[2]", "value": 0.104, "unit": "nM"},
      {"measurement": "Kd", "setting": "[3]", "value": 0.127, "unit": "nM"},
      {"measurement": "Bmax", "setting": "Rattus norvegicus [4]", "value": 675, "unit": "fM/g"},
      {"measurement": "D", "setting": "Rattus norvegicus [5]", "value": 27, "unit": "%"},
      {"measurement": "D", "setting": "Rattus norvegicus [6]", "value": 50, "unit": "%"},
      {"measurement": "D", "setting": "Rattus norvegicus [7]", "value": 20, "unit": "%"},
      {"measurement": "D", "setting": "Rattus norvegicus [8]", "value": 0, "unit": "%"},
      {"measurement": "D", "setting": "Rattus norvegicus [9]", "value": 0, "unit": "%"},
      {"measurement": "D", "setting": "Rattus norvegicus [10]", "value": 47, "unit": "%"},
      {"measurement": "D", "setting": "Rattus norvegicus [11]", "value": 91, "unit": "%"},
      {"measurement": "D", "setting": "Rattus norvegicus [12]", "value": 20, "unit": "%"},
      {"measurement": "D", "setting": "Rattus norvegicus [13]", "value": 10, "unit": "%"},
      {"measurement": "Monoamine level", "setting": "Rattus norvegicus [14]", "value": 459, "unit": "pg/mg"},
      {"measurement": "Monoamine level", "setting": "Rattus norvegicus [15]", "value": 329, "unit": "pg/mg"},
      {"measurement": "Monoamine level", "setting": "Rattus norvegicus [16]", "value": 330, "unit": "pg/mg"},
      {"measurement": "Monoamine level", "setting": "Rattus norvegicus [17]", "value": 130, "unit": "pg/mg"},
      {"measurement": "Monoamine level", "setting": "Rattus norvegicus [18]", "value": 187, "unit": "pg/mg"},
      {"measurement": "Monoamine level", "setting": "Rattus norvegicus [19]", "value": 193, "unit": "pg/mg"},
      {"measurement": "Monoamine level", "setting": "Rattus norvegicus [20]", "value": 473, "unit": "pg/mg"},
      {"measurement": "Monoamine level", "setting": "Rattus norvegicus [21]", "value": 273, "unit": "pg/mg"},
      {"measurement": "SDL", "setting": "Rattus norvegicus [22]", "value": 13, "unit": "%"},
      {"measurement": "SDL", "setting": "Rattus norvegicus [23]", "value": 50, "unit": "%"},
      {"measurement": "SDL", "setting": "Rattus norvegicus [24]", "value": 38, "unit": "%"},
      {"measurement": "SDL", "setting": "Rattus norvegicus [25]", "value": 13, "unit": "%"},
      {"measurement": "SDL", "setting": "Rattus norvegicus [26]", "value": 63, "unit": "%"},
      {"measurement": "SDL", "setting": "Rattus norvegicus [27]", "value": 100, "unit": "%"},
      {"measurement": "SDL", "setting": "Rattus norvegicus [28]", "value": 25, "unit": "%"},
      {"measurement": "SDL", "setting": "Rattus norvegicus [29]", "value": 50, "unit": "%"},
      {"measurement": "Monoamine level", "setting": "Rattus norvegicus [30]", "value": 395, "unit": "pg/mg"}
    ]}
  ]
}
